Results from patent US12460245B2, “Luciferase sequences utilizing infrared-emitting substrates to produce enhanced luminescence” (Promega Corporation, priority 2014, dated 2025).

Legend:
[1] = molecular target: T1, QuantiLum® Recombinant Luciferase (Photinus pyralis, UniProt P08659); test: Spectral scan using Aka Lumine as substrate; type: biochemical; settings: FIG. 19B
T1 construct: purchased Promega E1701
Text: (§1) FIG. 19A and FIG. 19B illustrate the luminescence of CBR using Aka Lumine, PBI-4739 and PBI-4813 (FIG. 19A) and the spectral scan of QuantiLum® Recombinant Luciferase using Aka Lumine as substrate (FIG. 19B).

CBR [2] = test: Luminescence of CBR using Aka Lumine, PBI-4739 and PBI-4813; type: biochemical, click beetle; settings: FIG. 19A
Text: as §1

[3] = Solubility of the substrates; type: physicochemical; settings: PBI-4739 compared with PBI-4813
cells = test: Cell toxicity studies; type: cell-based; settings: compared to D-luciferin
CBR [4] = test: Km titration in live HEK293T cells; type: cell-based, click beetle; settings: 60 min at 37° C.
Procedure: HEK293T cells were plated at 15,000 cells/well into wells of 96-well white assay plates and grown overnight. A transfection mixture was made containing 13 μg of CBR DNA and 40 μL FuGENE® HD in a total volume of 620 μL OptiMEM. The mixture was incubated at room temperature for 10 min. The cells were then transfected, in triplicate, with 5 μL of transfection complex and grown overnight. […] The growth media from the transfected cells was removed and replaced with one of the 3× serial diluted substrate containing media. The cells were incubated 60 min at 37° C., and the cells were imaged on a ImageQuant CCD imager (FIG. 22).

[5] = molecular target: T2, QuantiLum® luciferase (firefly) (Photinus pyralis, UniProt P08659); test: Spectral scan of near-IR substrates with purified enzyme; type: biochemical; settings: substrate 1 mM in Bright-Glo Assay buffer + 1 mM ATP
T2 construct: purchased Promega E1701
Procedure: Materials: The following were used in the Examples: Ultra-Glo™ Luciferase (Promega Cat. No. E140); QuantiLum® Recombinant Luciferase (Promega Cat. No. E1701); Click Beetle Red Luciferase (CBR; 0.5 mg/mL purified; Promega); Bright-Glo™ assay buffer (Promega Cat. No. E264A); PBI-4739 (Promega—See FIG. 1); and PBI-4813 (Promega—See FIG. 1).
Experimental Details. The substrates, PBI-4813 and PBI-4739, were diluted to 1 mM (final concentration) in Bright-Glo™ Assay buffer+1 mM ATP. 50 μL of substrate solution was added to 50 μL of Click Beetle Red, UltraGlo® or QuantiLum® purified enzyme (0.5 mg/mL diluted in DMEM+0.1% Prionex) in triplicate, and then the samples assayed using a Tecan M-1000 plate reader in spectral scan mode.
FIG. 2 provides the spectral data for Click Beetle Red Luciferase with PBI-4813 (A) and PBI-4739 (B), where the spectral maximum was 655 nm for PBI-4813 and 760 nm for PBI-4739. FIG. 3 provides the spectral data for UltraGlo® luciferase with PBI-4813 (A) and PBI-4739 (B), where the spectral maximum was 670 nm for PBI-4813 and 660 nm for PBI-4739. FIG. 4 provides the spectral data for QuantiLum® luciferase (firefly) with PBI-4813 (A) and PBI-4739 (B), where the spectral maximum was 680 nm for PBI-4813 and equal to or greater than 700 nm for PBI-4739.

CBR [6] = test: Km titration in live HeLa cells; type: cell-based, click beetle; settings: 60 min at 37° C.
Procedure: HeLa cells were plated at 20,000 cells/well into wells of 96-well white assay plates and grown overnight. A transfection mixture was made containing 13 μg of CBR DNA and 40 μL FuGENE® HD in a total volume of 620 μL OptiMEM. The mixture was incubated at room temperature for 10 min. The cells were then transfected, in triplicate, with 5 μL of transfection complex and grown overnight. […] The growth media from the transfected cells was removed and replaced with one of the 3× serial diluted substrate containing media. The cells were incubated for 60 min at 37° C. Luminescence was detected on a GloMax®-Multi+luminometer (FIG. 21A and FIG. 21B).

[7] = test system: Click Beetle Red (CBR) mutant(s); test: Light emission from Click Beetle Red mutant(s) with the red-shifted substrates; type: biochemical; settings: PBI-4813 compared with PBI-4739
[8] = Substrate inhibition of luciferase activity at high substrate concentration; type: biochemical
ATG 1240 = test: Mimicry of tissue attenuation using long pass filters, transfected HEK293T cells; type: cell-based, click beetle; settings: HEK293T cells expressing ATG 1240; long pass filters
Procedure: A transfection complex was prepared by diluting ATG 1240 DNA or Luc2 DNA (pF4Ag-Luc2) to 100 ng/μL, and then 2× serial dilutions prepared in 50 ng/μL pGEM carrier DNA. 40 μL of the diluted DNA was the mixed with 160 μL phenol red free OptiMEM and 16 μL of FuGENE® HD and incubated for 20 min. 5 μL of each transfection complex was added to wells of a 96-well black assay plates and then 100 μL of diluted HEK293T cells (200,000/mL in DMEM+10% FBS) was added. The cells were grown overnight at 37° C. with CO2.
To assay the cells, 4 mM D-luciferin, 2 mM PBI-4813 and 2 mM PBI-4739 substrate solutions were prepared in DMEM+10% FBS. 100 μL of the D-luciferin solution was added to cells expressing Luc2 and ATG 1240, and 100 μL of PBI-4813 or PBI-4739 solution was added to ATG 1240 expressing cells. Samples were incubated for 10 min at 37° C., and luminescence detected on GloMax® Discover (heated to 37° C.) with no filter, 610 nm Long Pass (LP) filter, 665 nm LP filter, 695 nm LP filter, 720 nm LP filter or 760 nm LP filter.

[9] = Km in live cell (remark in Example 13); type: cell-based; settings: enzyme not stated
CBR [10] = test: Km titration in HEK293 cell lysates; type: biochemical, click beetle
Procedure: (§2) Some of the variants identified in Examples 2 and 3 were screened for their performance in mammalian cells. DNA was prepared by Plasmid.com. HEK293 and HeLa cells were plated into wells of a 24-well plate at 0.05×10^6 cells/mL and grown overnight at 37° C. with CO2. 2.2 μg variant DNA was mixed with 80 μL OptiMEM and 6.6 μL FuGENE® HD transfection reagent (Promega Corporation) and incubated at room temperature for 5 min. 25 μL of the DNA mixture was added to each well. After overnight incubation, the media was removed from the cells and 1 mL DPBS (Life Technologies) was added. […] Luminescence of the variants was normalized to the average of two CBR samples (FIG. 6 and FIG. 7). C. Km Titration. Cell lysates of ATG 1230 and ATG 1240 expressed in HEK293 cells were prepared as described in Example 4. The cell lysates were then diluted 1:10 in 0.3×PLB+0.1% Prionex. Dilutions (2×) of each substrate (PBI-4813 or PBI-4739) were prepared in Bright-Glo™ Assay buffer containing 1 mM ATP. 50 μL of diluted cell lysate was assayed with 50 μL of each substrate assay solution. Luminescence was detected on the GloMax® Discover (FIG. 12). […] Because the enzyme concentration is not known for the lysates of for live cell titrations, Vmax as expressed as a velocity is not possible. Instead, the relative Vmax calculates the maximum brightness for each lysate with different substrates.

ATG1240 = test: Km titration in HEK293 cell lysates; type: biochemical, click beetle
Procedure: as §2

T2 sequence (P08659 whole entry): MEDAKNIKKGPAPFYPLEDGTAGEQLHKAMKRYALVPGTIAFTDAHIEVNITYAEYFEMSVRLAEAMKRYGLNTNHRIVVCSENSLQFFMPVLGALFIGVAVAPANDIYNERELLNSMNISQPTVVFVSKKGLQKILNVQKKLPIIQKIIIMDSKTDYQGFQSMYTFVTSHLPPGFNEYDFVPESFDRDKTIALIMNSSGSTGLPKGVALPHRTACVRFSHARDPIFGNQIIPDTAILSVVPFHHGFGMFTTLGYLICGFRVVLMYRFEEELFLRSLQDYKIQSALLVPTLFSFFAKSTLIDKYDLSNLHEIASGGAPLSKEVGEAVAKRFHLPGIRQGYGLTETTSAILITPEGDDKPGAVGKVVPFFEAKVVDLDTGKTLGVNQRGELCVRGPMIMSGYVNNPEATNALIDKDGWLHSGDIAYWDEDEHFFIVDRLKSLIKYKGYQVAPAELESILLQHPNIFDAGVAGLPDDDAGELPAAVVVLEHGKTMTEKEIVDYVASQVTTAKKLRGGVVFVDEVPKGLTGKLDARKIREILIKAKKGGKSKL
T1 sequence (P08659 whole entry): as above

| SMILES | emission wavelength (less red) [1] | brightness (CBR [2]) | solubility [3] | cell toxicity (cells) | Km for CBR, lower relative to D-luciferin (CBR [4]) | spectral maximum with QuantiLum® luciferase (firefly) [5] | Km for CBR in live cells, lower than the Km for D-luciferin (CBR [6]) | brightness of light emission [7] | substrate inhibition by the substrate [8] | luminescence of ATG 1240 at the greatest light attenuation (ATG 1240) | Km less than for D-luciferin in live cell [9] | Km with CBR in the lysates, lower than CBR with D-luciferin (CBR [10]) | Km with ATG1240, lower than CBR with D-luciferin (ATG1240) |
| --- | --- | --- | --- | --- | --- | --- | --- | --- | --- | --- | --- | --- | --- |
| CN(C)c1ccc(/C=C/C=C/C2=N[C@@H](C(=O)O)CS2)cc1 [Aka Lumine] | 675 nm | dimmer |  |  |  |  |  |  |  |  |  |  |  |
| O=C(O)C1CSC(c2nc3ccc4cc(O)ccc4c3s2)=N1 (stereo not shown) [PBI-4739] |  |  | less soluble | comparable non-toxicity to D-luciferin | about 5 times | ≥ 700 nm |  |  |  |  |  |  |  |
| Nc1ccc2c(ccc3nc(C4=NC(C(=O)O)CS4)sc32)c1 (stereo not shown) [PBI-4813] |  |  |  | comparable non-toxicity to D-luciferin | about 23 times | 680 nm | about 20 times | brighter | possible substrate inhibition | comparable | more than 10 times | about 30 × | about 5 × |
